The experiment deals with C57 BL/6J-ob/ob mice. Nature of the experiment: test for hypoglycemic effect in ob/ob mice. The settings on record: plasma glucose on day 5, ob/ob mice dosed daily for five days, 50 mg/kg in 0.25% w/v methyl cellulose; value given as an example (e.g.). It counts as in vivo. An excerpt:
The present compounds of the formula (I) are readily adapted to clinical use as hypoglycemic or hypocholesterolemic agents. The activity required for this former clinical use is defined by the test for hypoglycemic effect in ob/ob mice by the following procedure:
Five to eight week old C57 BL/6J-ob/ob mice (obtained from Jackson Laboratory, Bar Harbor, Maine) were housed five per cage under standard animal care practices. After a one week acclimation period, the animals were weighed and 25 microliters of blood was collected via an ocular bleed prior to any treatment. The blood sample was immediately diluted 1:5 with saline containing 2.5 mg/ml sodium fluoride and 2% sodium heparin, and held on ice for metabolite analysis. […] The supernatant was analyzed for glucose, for example, by the ABA 200 Bichromatic Analyzer™, using the A-gent™ glucose UV reagent system* (hexokinase method) using 20, 60 and 100 mg/dl standards. Plasma glucose was then calculated by the equation, Plasma glucose (mg/dl) = Sample value x 5 x 1.67 = 8.35 x Sample value [formula] where 5 is the dilution factor and 1.67 is the plasma hematocrit adjustment (assuming the hematocrit is 40%). ™A registered trademark of Abbott Laboratories, Diagnostics Division, 820 Mission Street, So. […]

For `CC1(COc2ccc(CC3SC(=O)NC3=O)cc2)CCCCC1` (stereo not shown) [positive control, ciglitazone], the glucose levels was approximately 130 mg/dL.

These data come from patent publication EP0332332B1, “Hypoglycemic thiazolidinedione derivatives” (PFIZER INC., priority 1988, dated 1989).
